Source: patent publication US20250122193A1, “NOVEL PYRIDOCARBAZOLIUM COMPOUNDS AND MEDICAL USES THEREOF” (MyCural Therapeutics, priority 2021, published 2025)

Experiments:
[1] = target: T1, endogenous MYC:MAX interaction (Homo sapiens, UniProt P01106); test: in situ proximity ligation assay (isPLA), MYC:MAX; format: cell-based; conditions: 5 μM, 24 hours, MCF-7 cells
T1 construct: endogenous in cells; host or cells: MCF7
Experimental: FIG. 1: MYCMI-7 (Compound Example 1) inhibits the MYC:MAX interaction in cells, bind MYC in vitro, and blocks MYC function. A) Molecular structure of MYCMI-7. B-E) split Gaussia luciferase (GLuc) assay. MYC or MYCN and MAX Gluc constructs were co-transfected into HeLa cells together with a firefly luciferase vector. 24 hours post transfection cells were treated with compounds, and after another 17-24 hours cells were harvested and both GLuc and firefly luciferase activities were measured. The mean of three different experiments is shown. […] G) Quantification of isPLA dots. […] J) MYC target gene ODC1 expression after treatment with 5 μM MYCMI-7, quantified by qPCR. […] L) Recombinant MYC bHLHZip protein domain immobilized onto a CM5 chip was subjected to various concentrations of MYCMI-7 and the complex of MYCbHLHZip-MYCMI-7 was measured as response units by SPR. […]
Briefly, cells were grown on collagen-coated chamber slides (Falcon), treated with compounds and then washed twice with PBS and fixed in ice cold methanol for 5-15 min at room temperature. […] Images were taken using an Axiovert 200M inverted microscope (Zeiss) and fluorescent dots were quantified using semi-automated analysis in ImageJ (http://imagej.net) and averaged to number of dots per cell. […]

MDA-MB-231 = MDA-MB-231 cells in cell culture; format: cell-based; conditions: Homo sapiens
Experimental: We next studied the effects of MYCMI-7 in a xenograft model of the human basal-like breast cancer cell line MDA-MB-231. The cells were highly sensitive to MYCMI-7 treatment in cell culture (data not shown), with a GI50 around 1 μM.

[2] = test system: MYCN-amplified SK-N-DZ neuroblastoma xenograft; test: SK-N-DZ neuroblastoma xenograft
Experimental: A) Tumor growth of MDA-MB-231 xenografts in mice injected with 6.25 mg/kg MYCMI-7 or vehicle intratumorally twice a week until sacrificed. Tumor growth was monitored by measuring tumor size (mm^3) every 4th day. B) Survival curve of the mice in A) sacrificed when the tumors reached a volume of 1000 mm^3. C) Immunohistochemistry staining for MYC and apoptosis marker caspase 3 in MDA-MB-231 tumor tissue from vehicle- and MYCMI-7 treated animals at end point, D) Immunofluorescence staining of proliferation and apoptosis markers Ki67 and TUNEL, respectively, in MDA-MB-231 xenograft tumor tissue from vehicle- and MYCMI-7 treated animals at end point. E) MYCN-amplified SK-N-DZ neuroblastoma xenograft mice injected with 6.25 mg/kg MYCMI-7 or vehicle intratumorally twice a week until sacrificed. Tumor growth was monitored by measuring tumor volume (ml) daily. F) Survival curve of mice in E) sacrificed at a tumor volume of 1500 mm^3. G-H) H&E (G) and MYCN IHC (H) stainings of SK-N-DZ xenograft tumor tissue from vehicle- and MYCMI-7 treated animals at end point. A-H) At the end points, the last injection was done 3 hrs before sacrifice. Images were taken at 10× or 40× magnification.
For the xenograft transplantation mouse tumor models of breast cancer and neuroblastoma, 6-8 weeks old NOD/SCID mice (Taconic) or NMRI nu/nu (Scanbur) were injected s.c. with 5×10^6 MDA-MB-231 breast cancer cells or MYCN-amplified SK-N-DZ neuroblastoma cells. When tumors reached a size of 100-200 mm^3, mice started receiving treatment (6.25 mg/kg MYCMI-7) administered intratumorally (50 ml) twice per week. The last dose was administered 3 hrs before termination. Mice were sacrificed when the tumors had reached as size of 1000 mm^3 (MDA-MB-231) or 1500 mm^3 (SK-N-DZ). Tumors were collected and frozen in OCT (Cryomount, Histolab) or fixed in buffered 4% formaldehyde solution (Histolab) and paraffin-embedded.
Immunohistochemistry andimmunofluorescence: Apoptosis was visualized at the single-cell level on tumor cryosections using the TUNEL method using the In Situ Cell Death Detection Fluorescein-Roche kit and analyzed by fluorescence microscopy. Briefly, tumor cryosections were fixed in 4% paraformaldyde (PFA) and the assay was performed following the instructions from the manufacturer. Negative controls were run using the reagent without the TdT enzyme. Samples were mounted using Vectashield mounting medium (Vector) and DAPI was used as nuclear counterstaining. […] Visualization and image acquisition was done in a Zeiss microscope, and for panoramic views by a Vectra imaging system. For quantification, areas with positive TUNEL and Ki67 staining were measured using Image J software.

[3] = intracerebroventricular injection, toxicity; conditions: highest concentration (10 μM)
Excerpt: (§1) First, we performed a pharmacokinetic study of the behavior of the molecule in mice.
MYC:MAX interaction = MYC:MAX interaction (Homo sapiens, UniProt P01106); test: split Gaussia luciferase (GLuc) assay, MYC:MAX; format: cell-based; design: replacing the existing Zip-gene (GCN4) with full length MYC, MYCN or MAX cDNA; expressed in transfected cells; host or cells: HeLa; conditions: 5 μM
Experimental: A) Molecular structure of MYCMI-7. B-E) split Gaussia luciferase (GLuc) assay. MYC or MYCN and MAX Gluc constructs were co-transfected into HeLa cells together with a firefly luciferase vector. 24 hours post transfection cells were treated with compounds, and after another 17-24 hours cells were harvested and both GLuc and firefly luciferase activities were measured. The mean of three different experiments is shown. Treatment with: B) 5 μM of MYCMI-7, 64 μM 10058-F4 or 5 μM JQ1, respectively, C) 6.5 μM MYCMI-7 on cells expressing MYC:MAX GLuc vs. GCN4:GCN4 GLuc, D) 5 μM MYCMI-7 and 5 μM ellipticine. E) 5 μM MYCMI-7 for various time points. F) in situ proximity ligation assay (isPLA). […] MYC:GAL4 was used as negative control in the isPLA assay. G) Quantification of isPLA dots. (H) Co-immunoprecipitation (co-IP) of endogenous MYC and MAX proteins from MCF7 cells after treatment with 5 μM MYCMI-7 at various times. IP=immunoprecipitation; W=western blot. I) Chromatin immunoprecipitation (ChIP) of MYC at the ODC1 target gene promoter after treatment of cells with 5 μM MYCMI-7 for 6 hours. J) MYC target gene ODC1 expression after treatment with 5 μM MYCMI-7, quantified by qPCR. K) ChIP of MYC at the ODC promoter in MCF7 cells after 5 μM MYCMI-7 treatment for indicated time points. L) Recombinant MYC bHLHZip protein domain immobilized onto a CM5 chip was subjected to various concentrations of MYCMI-7 and the complex of MYCbHLHZip-MYCMI-7 was measured as response units by SPR. The sensogram was produced by subtracting the blank response.
0.2-0.4 μg of each GLuc-construct together with 0.05 μg pCMV-LUC (firefly luciferase) were used per transfection in 12 well plates. 24 hours later cells were treated with compound or DMSO. After another 17 hours, the cells were harvested and lyzed in passive lysis buffer (Promega) supplemented with complete protease inhibitor (Roche). After 60 min incubation at room temperature 20 μM D-luciferin was added (substrate of Firefly luciferase) and luminescence was measured in a Lumat LB9501 (Berthold) or OmegaFluostar (BMG Labtech) luminometer. Directly after, Gaussia luciferase substrate Coelenterazine (Promega) was added to a final concentration of 20 μM in a mixture with “Stop n' Glow” (Promega) and the luciferase activity was measured. The ratio between Gaussia and Firefly luciferase values were calculated and normalized to DMSO-treated control cells.

[4] = 6.25 mg/kg intratumoral twice a week

Sequence of MYC:MAX interaction (P01106 16-454): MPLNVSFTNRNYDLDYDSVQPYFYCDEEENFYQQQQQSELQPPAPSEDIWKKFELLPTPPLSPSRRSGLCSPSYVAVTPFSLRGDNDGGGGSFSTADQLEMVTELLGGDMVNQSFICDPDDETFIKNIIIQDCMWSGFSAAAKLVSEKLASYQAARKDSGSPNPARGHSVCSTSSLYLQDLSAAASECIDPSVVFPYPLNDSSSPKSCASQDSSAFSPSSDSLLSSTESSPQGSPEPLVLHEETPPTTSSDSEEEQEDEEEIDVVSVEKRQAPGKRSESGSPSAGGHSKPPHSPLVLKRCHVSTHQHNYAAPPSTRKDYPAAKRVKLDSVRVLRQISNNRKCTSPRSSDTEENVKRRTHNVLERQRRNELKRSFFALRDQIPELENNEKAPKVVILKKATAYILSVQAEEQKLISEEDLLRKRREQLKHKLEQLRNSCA
T1 sequence (P01106 16-454): as above
Excerpt for Caco2 cell assay: as §1

CCN(CC)CC[n+]1ccc2c(C)c3[nH]c4ccccc4c3c(C)c2c1 [MYCMI-7, 2-(5,11-Dimethyl-6H-25-pyrido[4,3-b]carbazol-2-yl)-N,N-diethylethanamine bromide]
inhibition of MYC:MAX interaction (isPLA) [1]: strongly inhibited | GI50 (MDA-MB-231): ~1000 nM | efflux (Caco2 cell assay): strong efflux | survival [2, 4]: significantly increased survival | tumor growth [2, 4]: reduced tumor growth | H&E staining of tumor tissue ([2]; mouse, in vivo): massive apoptosis and/or necrosis as well as hemorrhage | MYCN expression in tumor cells (IHC) ([2]; mouse, in vivo): strong reduction in MYCN expression | toxicity after intracerebroventricular injection [3]: no signs of toxicity | time of treatment within which MYC:MAX interaction was inhibited (MYC:MAX interaction): ≤ 4 h | inhibition of MYC:MAX GLuc interaction (MYC:MAX interaction; HeLa cells): inhibited
